This passage reports EC50 results from publication PMC8317940, “Strained contacts with the cell membrane may influence ligand affinity to G protein coupled receptors: a case of free fatty acid receptor 1 agonists” (Journal of Enzyme Inhibition and Medicinal Chemistry, 2021).

What is called EC50 is the concentration needed to bring the measured effect to its halfway point.

For the experiment, the target named is T1, free fatty acid receptor 1 (FFA1, GPR40) (Homo sapiens, UniProt O14842).
T1 construct: gene FFAR1
The experiment in a line: calcium flux (FLIPR) agonist assay in CHO cells stably expressing human FFA1. The format is cell-based. In general terms: A change in cytosolic calcium serves as a functional read-out for many receptors and channels.

T1 sequence (O14842 whole entry): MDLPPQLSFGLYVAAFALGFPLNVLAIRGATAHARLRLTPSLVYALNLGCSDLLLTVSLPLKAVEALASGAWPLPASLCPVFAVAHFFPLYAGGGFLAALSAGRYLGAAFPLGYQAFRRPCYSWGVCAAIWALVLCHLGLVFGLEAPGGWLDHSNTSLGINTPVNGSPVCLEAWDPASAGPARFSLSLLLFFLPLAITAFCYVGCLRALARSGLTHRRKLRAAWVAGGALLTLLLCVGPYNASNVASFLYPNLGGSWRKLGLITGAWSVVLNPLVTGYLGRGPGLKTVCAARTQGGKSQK

As to `O=C(O)CCc1nnc(C(=O)Nc2cccc(-c3ccc(Cl)cc3)c2)s1` [2a, 3-(5-{[(4′-Chlorobiphenyl-3-yl)amino]carbonyl}-1,3,4-thiadiazol-2-yl)propanoic acid], the EC50 turned out to be 1320 nM. For `O=C(O)CCc1nnc(C(=O)Nc2cccc(-c3ccc(OC(F)(F)F)cc3)c2)s1` [2c, 3-[5-({[4′-(Trifluoromethoxy)biphenyl-3-yl]amino}carbonyl)-1,3,4-thiadiazol-2-yl]propanoic acid], the EC50 was found to be 1250 nM. With `O=C(O)CCc1nnc(C(=O)Nc2ccc(-c3cccc(C(F)(F)F)c3)cc2)s1` [2e, 3-[5-({[3′-(Trifluoromethyl)biphenyl-4-yl]amino}carbonyl)-1,3,4-thiadiazol-2-yl]propanoic acid] the figure was 1860 nM; with `COc1cccc(-c2ccc(NC(=O)c3nnc(CCC(=O)O)s3)cc2)c1` [2g, 3-(5-{[(3′-Methoxybiphenyl-4-yl)amino]carbonyl}-1,3,4-thiadiazol-2-yl)propanoic acid], 1350 nM.
